Among the data in a melting point compilation (Tetko et al.; mined from patent text by program, amines drawn as free bases though some values may be those of a salt) are melting point values, retold here.

The structures appear in SMILES notation.

On to `CNCCCNCCCSP(=O)(O)O`, for which the melting point lay within 115 to 120 °C.

For `COC(=O)c1nc2cc(Cl)ccc2c(O)c1C(=O)OC`, the melting point lay in the range of 232 to 233 °C.

As to `Cc1nc(C(F)(F)F)ccc1NC(=NC#N)NC(NC(=O)c1ccc(Cl)cc1)C(C)(Cl)Cl` (stereo not given), the melting point is 115 to 116 °C.

In turn, `COC(=O)C=Cc1ccccc1C#N` yielded a melting point of 92 to 93 °C.

In turn, `CCOC(=O)/C=C/c1ccc(OCCN2CCCC2=O)cc1OCc1ccccc1` came in with a melting point of 94 to 97 °C.

As for `COc1cc(COc2nn(-c3ccccc3)cc2C=O)ccc1OCc1nc(-c2cccc(O)c2)oc1C`, the melting point lay within 193 to 194 °C.

`COC(=O)c1ccc(-c2ccc(I)c(O)c2)cc1` showed a melting point of 192 °C.

In turn, `COc1cccc(C2CCc3cc(OC)ccc3C2=O)c1` (stereo not given) gave a melting point of 81 to 82 °C.

`COc1cc2ccc(-c3cc4c(cc3[N+](=O)[O-])OCO4)c([N+](=O)[O-])c2cc1OC` gave a melting point of 187 to 189 °C.

As to `O=S(Cc1c(F)cccc1Cl)c1nc2cnccc2[nH]1` (stereo not given), the melting point lay in the range of 180 to 183 °C.

The compound `C#CCN(Cc1cc2c(=O)n(CCN(C)C)c(CN3CCCCC3)nc2cc1Cl)c1ccc(C(=O)NCc2cccnc2)cc1` yielded a melting point of 90 to 93 °C.

`Cn1c(C(F)F)nn(-c2cc(OCC(N)=O)c(Cl)cc2Cl)c1=O`: the melting point fell in the range of 190 to 194 °C.

In turn, `CCNc1nc2ccc(CCc3ccccn3)cc2o1` came in with a melting point of 57 to 59 °C.

Regarding `CCOC(=O)CC[C@H](NC(=O)c1ccc(NS(=O)(=O)c2cc3c(cc2Br)CCc2nc(N)[nH]c(=O)c2-3)cc1)C(=O)OCC`, the melting point came to 175 °C.

`CC1(C)C(=O)Nc2cc3[nH]c(CCC(=O)O)nc3cc21`: the melting point is 130 to 135 °C.

On to `COc1ccc(C2=NN(SC(C)C)C(=O)C2(SC(C)C)SC(C)C)cc1`, for which the melting point is 52 to 54 °C.

Compound `COC(=O)c1cc2cc(-c3ccc4ccc(Cl)cc4n3)ccc2o1` yielded a melting point of 178 to 181 °C.

Compound `COc1ccc(Cn2c(S)nc3ccccc32)cc1` yielded a melting point of 199 to 200 °C.

`CC(=O)ON1C(C)(C)CC(OC(=O)CCCCCCCCC(=O)OC2CC(C)(C)N(OC(C)=O)C(C)(C)C2)CC1(C)C` returned a melting point of 81 to 94 °C.

On to `CC(=O)NC(C)C(=O)Nc1ccc2[nH]cc(C(=O)O)c(=O)c2c1` (stereo not given), for which the melting point was in the range of 196 to 200 °C.

Compound `CN(C)c1ccccc1CSC1=NC(SCc2ccccc2)=NC1(C)C` displayed a melting point of 91 to 92 °C.

As for `CC(=Cc1ccc(F)cc1F)C(=O)O`, the melting point is 126 to 128 °C.

`CCN1c2ncccc2C(=NC#N)Nc2c(C)cc(C)nc21` registered a melting point of 230 to 233 °C.

Turning to `O=C1OC(Cc2ccccc2)CN1c1cccc(F)c1` (stereo not given), the melting point was in the range of 96 to 97.5 °C.

Compound `CC(=O)NC[C@H]1CN(c2ccc(C(=O)c3cnc4c(Br)cc(C)cn34)cc2)C(=O)O1` showed a melting point of 221 to 223 °C.

Consider `CCCc1c2c(c(NCC)c3c(=O)cc(C(=O)OCC)oc13)CCCC2`, for which the melting point was 91.5 °C.

`COC(=O)Cc1ccc2c(c1)CCc1ccccc1S2`: the melting point lay within 103 to 105 °C.

The compound `CCOC(=O)c1cc2ccccc2n(-c2c(Cl)cccc2Cl)c1=N` displayed a melting point of 169 to 170 °C.

As for `CC(C)CC1C(=O)NCCN1Cc1ccccc1` (stereo not given), the melting point lay in the range of 126 to 127 °C.

As for `COC(=O)CC1OCCN(CCc2c[nH]c3ccccc23)C1=O` (stereo not given), the melting point was determined as 144 °C.

`CC(C)(C)OC(=O)N1CCN2C(=O)OC(c3ccccc3)(c3ccccc3)C2C1` (stereo not given) had a melting point of 151 to 152 °C.

The compound `O=C(O)c1cn(Cc2cnsn2)c2nc(Cl)c(F)cc2c1=O` gave a melting point of 231 to 232 °C.

In the case of `CC1(C#N)C(=O)C2=C(c3ccccc3)NC(=O)C2=C1c1ccccc1` (stereo not given), the melting point is 299 to 301 °C.

The compound `CC(C)n1nc(-c2sc(NC(=O)c3ccccc3Cl)nc2-c2ccccc2)ccc1=O` registered a melting point of 220 to 221 °C.

The compound `COc1cc(NC(=O)C(C#N)=CNc2ccsc2)c(Cl)cc1Cl` registered a melting point greater than 250 °C.

The term melting point denotes the temperature, or range, at which the solid turns liquid.
